From patent US20230374034A1, “NOVEL BICYCLIC COMPOUNDS” (PRISM BIOLAB CO., LTD., priority 2020, published 2023)

Tested on: NICD (Notch intracellular domain) CSL-bla reporter in HeLa cells
Test: Notch assay (CellSensor T-REx NICD CSL-bla HeLa beta-lactamase reporter; Method 1 / Method 2)
Assay type: cell-based
Conditions: Homo sapiens, 10 μM compound, Method 1 (10× compound prepared in assay medium, added to plated cells), read-out: inhibiton (%) at 10 μM
Procedure, shortened: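 HeLa cells carrying doxycycline-inducible NICD and a CSL-driven beta-lactamase reporter, 10^3 cells/well, were treated with compound plus doxycycline for 16-20 h at 37 °C. CCF4-AM substrate was loaded for 4 h at room temperature; background-subtracted blue (460 nm)/green (530 nm) emission ratio taken per well.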

Row | Compound | inhibition at 10 µM
1 | CCCCCCOC(=O)N1O[C@H](CCCC)C(=O)N2C1CN(CCC(C)C)C(=O)[C@@H]2Cc1ccc(O)cc1 (stereo partly drawn) [Compound I-2, (3R,6S)-hexyl 3-butyl-6-(4-hydroxybenzyl)-8-isopentyl-4,7-dioxohexahydropyrazino[2,1-c][1,2,4]oxadiazine-1(6H)-carboxylate] | 53.5%
2 | CCCCCCOC(=O)N1O[C@@H](Cc2ccccc2)C(=O)N2C1CN(Cc1ccccc1)C(=O)[C@@H]2Cc1ccc(O)cc1 (stereo partly drawn) [Compound I-6, (35,6S)-hexyl 3,8-dibenzyl-6-(4-hydroxybenzyl)-4,7-dioxohexahydropyrazino[2,1-c][1,2,4]oxadiazine-1(6H)-carboxylate] | 62.1%
3 | CCCC[C@H]1ON(C(=O)OCc2cccc3ccccc23)C2CN(Cc3ccccc3)C(=O)[C@H](Cc3ccc(O)cc3)N2C1=O (stereo partly drawn) [Compound I-11, (3R,6S)-naphthalen-1-ylmethyl 8-benzyl-3-butyl-6-(4-hydroxybenzyl)-4,7-dioxohexahydropyrazino[2,1-c][1,2,4]oxadiazine-1(6H)-carboxylate] | 51.7%
4 | CC(C)CCN1CC2N(C(=O)OCc3cccc4ccccc34)O[C@H](Cc3ccccc3)C(=O)N2[C@@H](C)C1=O (stereo partly drawn) [Compound I-15, (3R,6S)-naphthalen-1-ylmethyl 3-benzyl-8-isopentyl-6-methyl-4,7-dioxohexahydropyrazino[2,1-c][1,2,4]oxadiazine-1(6H)-carboxylate] | 52.6%

Same assay, conditions: Homo sapiens, 10 μM compound, Method 2 (40 nL of 1000× compound added to plate with Echo), read-out: inhibiton (%) at 10 μM

Row | Compound | inhibition at 10 µM
5 | O=C1[C@H](CO)N2C(=O)[C@@H](Cc3ccccc3)ON(C(=O)OCC3CCCCC3)C2CN1CCc1ccc(O)cc1 (stereo partly drawn) [Compound I-32, (3R,6S)-cyclohexylmethyl 3-benzyl-6-(hydroxymethyl)-8-(4-hydroxyphenethyl)-4,7-dioxohexahydropyrazino[2,1-c][1,2,4]oxadiazine-1(6H)-carboxylate] | 59.8%
6 | CC[C@H](C)CN1CC2N(C(=O)OCC3CCCCC3)O[C@H](CC(C)C)C(=O)N2[C@@H](CCCCN)C1=O (stereo partly drawn) [Compound I-31, (3R,6S)-cyclohexylmethyl 6-(4-aminobutyl)-3-isobutyl-8-((S)-2-methylbutyl)-4,7-dioxohexahydropyrazino[2,1-c][1,2,4]oxadiazine-1(6H)-carboxylate] | 67.1%
7 | CCCC[C@@H](C(=O)NCCCC(C)C)N1CC2N(C(=O)OCCc3ccc(O)cc3)O[C@H](Cc3ccccc3)C(=O)N2[C@@H](Cc2ccc(O)cc2)C1=O (stereo partly drawn) [Compound I-112, 4-hydroxyphenethyl (3R,6S)-3-benzyl-6-(4-hydroxybenzyl)-8-((S)-1-((4-methylpentyl)amino)-1-oxohexan-2-yl)-4,7-dioxohexahydropyrazino[2,1-c][1,2,4]oxadiazine-1(6H)-carboxylate] | 54.2%
8 | CCCCCN1CC2N(C(=O)OCC3CCCCC3)O[C@H](Cc3ccccc3)C(=O)N2[C@@H](CCCCN)C1=O (stereo partly drawn) [Compound I-28, (3R,6S)-cyclohexylmethyl 6-(4-aminobutyl)-3-benzyl-4,7-dioxo-8-pentylhexahydropyrazino [2,1-c][1,2,4]oxadiazine-1(6H)-carboxylate] | 99.7%
9 | CCCC[C@@H](C(=O)NCCC(C)C)N1CC2N(C(=O)OCCc3ccccc3)O[C@H](Cc3ccccc3)C(=O)N2[C@@H](Cc2ccccc2)C1=O (stereo partly drawn) [Compound I-82, phenethyl (3R,6S)-3,6-dibenzyl-8-((S)-1-(isopentylamino)-1-oxohexan-2-yl)-4,7-dioxohexahydro-pyrazino[2,1-c] [1,2,4]oxadiazine-1(6H)-carboxylate] | 51.2%
10 | CCCCCC[C@H]1C(=O)N(C2CCN(C)CC2)C[C@@H]2N(CCCc3ccccc3)O[C@H](CC(C)C)C(=O)N21 [Compound I-142, (3R,6S,9aS)-6-hexyl-3-isobutyl-8-(1-methylpiperidin-4-yl)-1-(3-phenylpropyl) tetrahydropyrazino [2,1-c][1,2,4]oxadiazine-4,7(3H,6H)-dione] | 113%
